Data as given in patent US20240000721A1, “COMPOSITIONS FOR REDUCTION OF OXIDATIVE STRESS, IMPROVEMENT TO THE IMMUNE SYSTEM, PROMOTION OF HEALTHY CARTILAGE AND/OR ALLEVIATION OF PAIN ACCOMPANYING INFLAMMATORY DISEASES IN RUMINANTS” (DSM IP Assets B.V., priority 2018, published 2024).

Tested on: Brahman steers (Bos indicus)
Assay: Rumen metabolites in rumen fluid of fistulated Brahman steers, quantified by NMR
Assay type: in vivo
Conditions: for Dimethylsulfone in rumen fluid / Trimethylamine in rumen fluid: rumen fluid 3 h post feeding
Source text: Eight fistulated Brahman steers (Bos indicus) were randomly allocated to two groups (4 animals per group) and received a forage ad libitum diet (Rhode grass hay (Chloris […]), chemical composition: DM, 917 g/kg fresh matter; in g/kg of DM: OM, 806; CP, 169; NDF, 661; ADF, 359; ADL, 46; ash, 116 and GE 17.38 MJ/kg). […] Animals were adapted to the diet over a 21 d period. After that initial period, experimental animals were placed into individual pens in an animal house for the measurement of intakes (10 d) and were treated with cyclodextrin (2 g/100 kg LW) and molasses (60 mL/d). On the last 2 days animals were placed into open-circuit respiration chambers for collection of rumen samples. […] PDMN was provided to the animals mixed with molasses (60 mL/day, molasses were previously diluted in water: 1:4 water:molasses) and mixed with the hay at three different times: 0 h, 3 h and 5 h after the feed was offered. […] On days 20 and 21 of treatment both groups were placed in open-circuit respiration chambers for rumen fluid collection. Rumen fluid samples (approx. 60 mL per animal) were collected using a probe with 2 layers of cheesecloth through the cannula of the animal at 3 h post feeding, during confinement in respiration chambers to determine rumen metabolites.

[1] = 21 days treatment compared with control period

SMILES | Dimethylsulfone in rumen fluid (2.5 g PDMN/animal/day (10% on silicon dioxide) for 21 days, control period 20) [μmol/L rumen fluid] | Trimethylamine in rumen fluid (2.5 g PDMN/animal/day (10% on silicon dioxide) for 21 days, control period 334) [μmol/L rumen fluid] | Effect on dimethylsulfone and trimethylamine in rumen fluid (in words) [1] | Effect on dimethylsulfone and trimethylamine in rumen fluid (in words) (21 days treatment compared with control period, listed as propanediolediol mononitrate) | Dimethylsulfone in rumen fluid (1.6 g chloroform-CD/100 kg LW for 21 days, control period 21) [μmol/L rumen fluid] | Trimethylamine in rumen fluid (1.6 g chloroform-CD/100 kg LW for 21 days, control period 564) [μmol/L rumen fluid] | Effect on the methyl donor dimethylsulfone and triethylamine in rumen fluid (in words) [1]
O=[N+]([O-])OCCCO [PDMN, 1,3-propanediol mononitrate] | 113 | 1242 | statistically significant increase | particularly effective |  |  | 
ClC(Cl)Cl [Chloroform, chloroform, reference compound] |  |  |  |  | 80 | 828 | statistically significant increase
